{"source": "ChEMBL document CHEMBL2434919", "about": "“Synthesis, cytotoxicity, and DNA-binding property of berberine derivatives” (Med Chem Res, 2013)", "key": {"DNA [1]": {"tested_on": "DNA", "assay": "Binding affinity to calf thymus DNA assessed as conformational changes in DNA morphology at […] after 2 hrs by circular dichroism analysis", "assay_type": "nucleic-acid assay", "details": "Bos taurus"}, "DNA [2]": {"tested_on": "DNA", "assay": "Binding affinity to calf thymus DNA assessed as intercalation after 2 hrs by Stern-Volmer plot relative to control", "assay_type": "nucleic-acid assay", "details": "Bos taurus"}, "DNA [3]": {"tested_on": "DNA", "assay": "Binding affinity to calf thymus DNA assessed as hypochromicity at 20 uM after 2 hrs by UV-Vis absorption titration analysis", "assay_type": "nucleic-acid assay", "details": "Bos taurus"}, "DNA [4]": {"tested_on": "DNA", "assay": "Binding affinity to calf thymus DNA assessed as intercalation after 2 hrs by UV-Vis absorption titration analysis", "assay_type": "nucleic-acid assay", "details": "Bos taurus"}, "KB": {"tested_on": "KB", "assay": "Cytotoxicity against human KB cells after 48 hrs by MTT assay", "assay_type": "functional, cell-based"}, "Bel-7402": {"tested_on": "Bel-7402", "assay": "Cytotoxicity against human Bel7402 cells after 48 hrs by MTT assay", "assay_type": "functional, cell-based", "details": "Bel-7402, 48 h"}, "BGC-823": {"tested_on": "BGC-823", "assay": "Cytotoxicity against human BGC823 cells after 48 hrs by MTT assay", "assay_type": "functional, cell-based", "details": "BGC-823, 48 h"}, "HL-60": {"tested_on": "HL-60", "assay": "Cytotoxicity against human HL60 cells after 48 hrs by MTT assay", "assay_type": "functional, cell-based", "details": "HL-60, 48 h"}, "DNA [5]": {"tested_on": "DNA", "assay": "Binding affinity to calf thymus DNA assessed as change in melting temperature at 100 uM by spectroscopic analysis", "assay_type": "nucleic-acid assay", "details": "Bos taurus"}}, "note": "Calls of active or inactive are those of the source. No cut-off for these calls is given here.", "data": [{"smiles": "COc1ccc2cc3[n+](cc2c1OCCOCCN1CCOCC1)CCc1cc2c(cc1-3)OCO2", "values": [{"measurement": "Activity", "setting": "DNA [1]", "result": "Active"}, {"measurement": "KSV", "setting": "DNA [2]", "result": 1.82, "unit": "×10⁵ /M"}, {"measurement": "Activity", "setting": "DNA [3]", "result": 21, "unit": "%"}, {"measurement": "K", "setting": "DNA [4]", "result": 6.32, "unit": "×10⁶ /M"}, {"measurement": "IC50", "setting": "KB", "result": 9.93, "unit": "µM"}, {"measurement": "IC50", "setting": "Bel-7402", "result": 9.44, "unit": "µM"}, {"measurement": "IC50", "setting": "BGC-823", "result": 11.9, "unit": "µM"}, {"measurement": "IC50", "setting": "HL-60", "result": 16.4, "unit": "µM"}, {"measurement": "ΔTm", "setting": "DNA [5]", "result": 1.7, "unit": "°C"}]}, {"smiles": "COc1ccc2cc3[n+](cc2c1OCCN1CCOCC1)CCc1cc2c(cc1-3)OCO2", "values": [{"measurement": "Activity", "setting": "DNA [1]", "result": "Active"}, {"measurement": "KSV", "setting": "DNA [2]", "result": 1.27, "unit": "×10⁵ /M"}, {"measurement": "Activity", "setting": "DNA [3]", "result": 17, "unit": "%"}, {"measurement": "K", "setting": "DNA [4]", "result": 3.55, "unit": "×10⁸ /M"}, {"measurement": "IC50", "setting": "KB", "result": 5.46, "unit": "µM"}, {"measurement": "IC50", "setting": "Bel-7402", "result": 11.6, "unit": "µM"}, {"measurement": "IC50", "setting": "BGC-823", "result": 2.82, "unit": "µM"}, {"measurement": "IC50", "setting": "HL-60", "result": 2.71, "unit": "µM"}, {"measurement": "ΔTm", "setting": "DNA [5]", "result": 1.4, "unit": "°C"}]}, {"smiles": "COc1ccc2cc3[n+](cc2c1OCCN1CCCCC1)CCc1cc2c(cc1-3)OCO2", "values": [{"measurement": "Activity", "setting": "DNA [1]", "result": "Active"}, {"measurement": "KSV", "setting": "DNA [2]", "result": 7.09, "unit": "×10⁴ /M"}, {"measurement": "Activity", "setting": "DNA [3]", "result": 21, "unit": "%"}, {"measurement": "K", "setting": "DNA [4]", "result": 1.27, "unit": "×10⁸ /M"}, {"measurement": "IC50", "setting": "KB", "result": 17.1, "unit": "µM"}, {"measurement": "IC50", "setting": "Bel-7402", "result": 27.5, "unit": "µM"}, {"measurement": "IC50", "setting": "BGC-823", "result": 10.2, "unit": "µM"}, {"measurement": "IC50", "setting": "HL-60", "result": 6.51, "unit": "µM"}, {"measurement": "ΔTm", "setting": "DNA [5]", "result": 2.2, "unit": "°C"}]}, {"smiles": "COc1ccc2cc3[n+](cc2c1OCCOCCN1CCCCC1)CCc1cc2c(cc1-3)OCO2", "values": [{"measurement": "Activity", "setting": "DNA [1]", "result": "Active"}, {"measurement": "KSV", "setting": "DNA [2]", "result": 8.01, "unit": "×10⁴ /M"}, {"measurement": "Activity", "setting": "DNA [3]", "result": 19, "unit": "%"}, {"measurement": "K", "setting": "DNA [4]", "result": 1.49, "unit": "×10⁶ /M"}, {"measurement": "IC50", "setting": "KB", "result": 19.7, "unit": "µM"}, {"measurement": "IC50", "setting": "Bel-7402", "result": 17.9, "unit": "µM"}, {"measurement": "IC50", "setting": "BGC-823", "result": 22.2, "unit": "µM"}, {"measurement": "IC50", "setting": "HL-60", "result": 46.8, "unit": "µM"}, {"measurement": "ΔTm", "setting": "DNA [5]", "result": 1.5, "unit": "°C"}]}, {"smiles": "COc1ccc2cc3[n+](cc2c1OCCOCCOCCN1CCCCC1)CCc1cc2c(cc1-3)OCO2", "values": [{"measurement": "Activity", "setting": "DNA [1]", "result": "Active"}, {"measurement": "KSV", "setting": "DNA [2]", "result": 1.01, "unit": "×10⁵ /M"}, {"measurement": "Activity", "setting": "DNA [3]", "result": 21, "unit": "%"}, {"measurement": "K", "setting": "DNA [4]", "result": 1.86, "unit": "×10⁵ /M"}, {"measurement": "IC50", "setting": "KB", "result": 33.9, "unit": "µM"}, {"measurement": "IC50", "setting": "Bel-7402", "result": 33.4, "unit": "µM"}, {"measurement": "IC50", "setting": "BGC-823", "result": 20.6, "unit": "µM"}, {"measurement": "IC50", "setting": "HL-60", "result": 45.8, "unit": "µM"}, {"measurement": "ΔTm", "setting": "DNA [5]", "result": 1.3, "unit": "°C"}]}, {"smiles": "COc1ccc2cc3[n+](cc2c1OCCOCCOCCN1CCOCC1)CCc1cc2c(cc1-3)OCO2", "values": [{"measurement": "Activity", "setting": "DNA [1]", "result": "Active"}, {"measurement": "KSV", "setting": "DNA [2]", "result": 1.79, "unit": "×10⁵ /M"}, {"measurement": "Activity", "setting": "DNA [3]", "result": 25, "unit": "%"}, {"measurement": "K", "setting": "DNA [4]", "result": 3.45, "unit": "×10⁵ /M"}, {"measurement": "IC50", "setting": "KB", "result": 10, "unit": "µM"}, {"measurement": "IC50", "setting": "Bel-7402", "result": 9.66, "unit": "µM"}, {"measurement": "IC50", "setting": "BGC-823", "result": 10.8, "unit": "µM"}, {"measurement": "IC50", "setting": "HL-60", "result": 14.8, "unit": "µM"}, {"measurement": "ΔTm", "setting": "DNA [5]", "result": 1.2, "unit": "°C"}]}, {"smiles": "COc1ccc2cc3[n+](cc2c1OC)CCc1cc2c(cc1-3)OCO2", "note": "[BERBERINE CHLORIDE]", "values": [{"measurement": "IC50", "setting": "KB", "result": 6.03, "unit": "µM"}, {"measurement": "IC50", "setting": "Bel-7402", "result": 16.3, "unit": "µM"}, {"measurement": "IC50", "setting": "BGC-823", "result": 7.04, "unit": "µM"}, {"measurement": "IC50", "setting": "HL-60", "result": 5.83, "unit": "µM"}]}, {"smiles": "COc1ccc2cc3[n+](cc2c1O)CCc1cc2c(cc1-3)OCO2", "note": "[BERBERRUBINE CHLORIDE]", "values": [{"measurement": "IC50", "setting": "KB", "result": 6.92, "unit": "µM"}, {"measurement": "IC50", "setting": "Bel-7402", "result": 34.3, "unit": "µM"}, {"measurement": "IC50", "setting": "BGC-823", "result": 7.66, "unit": "µM"}, {"measurement": "IC50", "setting": "HL-60", "result": 11.4, "unit": "µM"}]}]}
